Laboratory results: patent US20240425524A1, “SPIROTRICYCLE RIPK1 INHIBITORS AND METHODS OF USES THEREOF” (Merck Sharp & Dohme LLC, priority 2021, published 2024)

These compounds were tested against RIPK1 (Homo sapiens (Human), UniProt Q13546) (assay: RIPK1-ADP-Glo Enzymatic Assay). Details: recombinant GST-RIPK1 kinase domain (residues 1-327), 25 nM, ten-point titration, 30 minutes pre-incubation.
Format: biochemical
Method: The enzymatic activity of RIPK1 was measured using an assay derived from ADP-Glo kit (™Promega), which provides a luminescent-based ADP detection system. Specifically, the ADP generated by RIPK1 kinase was proportionally detected as luminescent signals in a homogenous fashion. In this context, the assessment of the inhibitory effect of small molecules (EC50) was measured by the effectiveness of the compounds to inhibit the ATP to ADP conversion by RIPK1.
In this assay, the potency (EC50) of each compound was determined from a ten-point (1:3 serial dilution: top compound concentration of 100000 nM) titration curve using the following outlined procedure. To each well of a white ProxiPlus 384 well-plate, 30 nL of compound (1% DMSO in final assay volume of 3 μL) was dispensed, followed by the addition of 2 μL of 1x assay buffer (25 mM Hepes 7.3, 20 mM MgCl2, 50 mM NaCl, 1 mM DTT, 0.005% Tween20, and 0.02% BSA) containing 37.5 nM of GST-RIPK1 (recombinant GST-RIPK1 kinase domain (residues 1-327) enzyme produced from baculovirus-transfected Sf21 cells: MW=62 kDa). Plates were placed in an ambient temperature humidified chamber for a 30 minutes pre-incubation with compound. Subsequently, each reaction was initiated by the addition of 1 μL 1× assay buffer containing […] dephosphorylated-MBP substrate. The final reaction in each well of 3 μL consists of 25 nM of GST-RIPK1, 300 µM ATP, and 3 μM dephosphorylated-MBP. Kinase reactions were allowed to proceed for 150 minutes prior to adding ADP-Glo reagents per Promega's outlined kit protocol. Dose-response curves were generated by plotting percent effect (% product conversion: Y-axis) vs. Logio compound concentrations (X-axis). EC50 values were calculated using a non-linear regression, four-parameters sigmoidal dose-response model and are provided for example compounds of the invention (labeled “RIPK1 EC50 (nM)” throughout the above examples).

Sequence of RIPK1 (Q13546 1-327): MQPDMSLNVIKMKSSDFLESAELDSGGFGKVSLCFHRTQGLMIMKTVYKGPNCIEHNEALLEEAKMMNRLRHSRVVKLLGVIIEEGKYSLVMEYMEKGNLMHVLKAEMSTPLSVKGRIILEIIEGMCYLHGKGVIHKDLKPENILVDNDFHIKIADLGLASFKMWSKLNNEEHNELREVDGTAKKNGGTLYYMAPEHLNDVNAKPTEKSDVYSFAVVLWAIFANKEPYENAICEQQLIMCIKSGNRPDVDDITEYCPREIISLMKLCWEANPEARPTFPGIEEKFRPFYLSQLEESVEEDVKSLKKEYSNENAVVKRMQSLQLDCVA

Row | EC50 [nM] | Compound
1 | 473 | N#Cc1ccc(N2CCC3(CC2)CN2CC[C@@H](c4cc(F)cc(F)c4)N2C3=O)nn1 [Example 1.37, (S)-6-(7′-(3,5-difluorophenyl)-1′-oxodihydro-1′H,3′H,5′H-spiro[piperidine-4,2′-pyrazolo[1,2-a]pyrazol]-1-yl)pyridazine-3-carbonitrile]
2 | 28 | O=C1N2[C@H](c3cc(F)cc(F)c3)CCN2CC12CCN(c1ccc(OC(F)F)cn1)CC2 [Example 2.21, (S)-1-(5-(difluoromethoxy)pyridin-2-y1)-7′-(3,5-difluorophenyl)dihydro-1′H,3′H,5′H-spiro[piperidine-4,2′-pyrazolo[1,2-a]pyrazol]-1′-one]
3 | 30 | O=C1N2[C@H](c3cc(F)cc(F)c3)CCN2CC12CCN(c1nccn3ncnc13)CC2 [Example 1.79, (S)-1-([1,2,4]triazolo[1,5-a]pyrazin-8-yl)-7′-(3,5-difluorophenyl)dihydro-1′H,3′H,5′H-spiro[piperidine-4,2′-pyrazolo[1,2-a]pyrazol]-1′-one]
4 | 18 | Cc1cc(F)cc(C(=O)N2CCC3(CC2)CN2CC[C@@H](c4cc(F)cc(F)c4)N2C3=O)c1 [Example 4.18, (S)-7′-(3,5-difluorophenyl)-1-(3-fluoro-5-methylbenzoyl) dihydro-1′H,3′H,5′H-spiro[piperidine-4,2′-pyrazolo[1,2-a]pyrazol]-l′-one]
5 | 904 | CN(C)c1cc(Cl)nc(N2CCC3(CC2)CN2CC[C@@H](c4cc(F)cc(F)c4)N2C3=O)n1 [Example 1.61, (S)-1-(4-chloro-6-(dimethylamino)pyrimidin-2-yl)-7′-(3,5-difluorophenyl)dihydro-1′H,3′H,5′H-spiro[piperidine-4,2′-pyrazolo[1,2-a]pyrazol]-1′-one]
6 | 17 | Cn1cc(-c2cc(N3CCC4(CC3)CN3CC[C@@H](c5cc(F)cc(F)c5)N3C4=O)ncn2)cn1 [Example 1.93, (S)-7′-(3,5-difluorophenyl)-1-(6-(1-methyl-1H-pyrazol-4-yl)pyrimidin-4-yl)dihydro-1′H,3′H,5′H-spiro[piperidine-4,2′-pyrazolo[1,2-a]pyrazol]-1′-one]
7 | 23 | O=C(c1ccc(Cl)c(F)c1)N1CCC2(CC1)CN1CC[C@@H](c3cc(F)cc(F)c3)N1C2=O [Example 4.23, (S)-1-(4-chloro-3-fluorobenzoyl)-7′-(3,5-difluorophenyl) dihydro-1′H,3′H,5′H-spiro[piperidine-4,2′-pyrazolo[1,2-a]pyrazol]-l′-one]
8 | 158 | Cc1c(F)cccc1C(=O)N1CCC2(CC1)CN1CC[C@@H](c3cc(F)cc(F)c3)N1C2=O [Example 4.8, (S)-7′-(3,5-difluorophenyl)-1-(3-fluoro-2-methylbenzoyl)dihydro-1′H,3′H,5′H-spiro[piperidine-4,2′-pyrazolo[1,2-a]pyrazol]-l′-one]
9 | 673 | CSc1ncc(C)c(N2CCC3(CC2)CN2CC[C@@H](c4cc(F)cc(F)c4)N2C3=O)n1 [Example 1.66, (S)-7′-(3,5-difluorophenyl)-1-(5-methyl-2-(methylthio)pyrimidin-4-yl)dihydro-1′H,3′H,5′H-spiro[piperidine-4,2′-pyrazolo[1,2-a]pyrazol]-1′-one]
10 | 804 | O=C1N2[C@H](c3cc(F)cc(F)c3)CCN2CC12CCN(c1ncccn1)CC2 [Example 1.55, (S)-7′-(3,5-difluorophenyl)-1-(pyrimidin-2-yl)dihydro-1′H,3′H,5′H-spiro[piperidine-4,2′-pyrazolo[1,2-a]pyrazol]-1′-one]
11 | 407 | O=C1N2[C@H](c3cc(F)cc(F)c3)CCN2CC12CCN(c1cncc(Cl)n1)CC2 [Example 1.40, (S)-1-(6-chloropyrazin-2-yl)-7′-(3,5-difluorophenyl)dihydro-1′H,3′H,5′H-spiro[piperidine-4,2′-pyrazolo[1,2-a]pyrazol]-1′-one]
12 | 144 | Cc1cc(N2CCC3(CC2)CN2CC[C@@H](c4cc(F)cc(F)c4)N2C3=O)nc(Cl)n1 [Example 1.48, (S)-1-(2-chloro-6-methylpyrimidin-4-yl)-7′-(3,5-difluorophenyl)dihydro-1′H,3′H,5′H-spiro[piperidine-4,2′-pyrazolo[1,2-a]pyrazol]-1′-one]
13 | 24 | O=C1N2[C@H](c3cc(F)cc(F)c3)CCN2CC12CCN(c1ccnc3ccccc13)CC2 [Example 2.7, (S)-7′-(3,5-difluorophenyl)-1-(quinolin-4-yl)dihydro-1′H,3′H,5′H-spiro[piperidine-4,2′-pyrazolo[1,2-a]pyrazol]-1′-one]
14 | 159 | CCc1nccc(N2CCC3(CC2)CN2CC[C@@H](c4cc(F)cc(F)c4)N2C3=O)n1 [Example 1.20, (S)-7′-(3,5-difluorophenyl)-1-(2-ethylpyrimidin-4-yl)dihydro-1′H,3′H,5′H-spiro[piperidine-4,2′-pyrazolo[1,2-a]pyrazol]-1′-one]
15 | 36 | O=C(c1cccc(F)c1Cl)N1CCC2(CC1)CN1CC[C@@H](c3cc(F)cc(F)c3)N1C2=O [Example 4.28, (S)-1-(2-chloro-3-fluorobenzoyl)-7′-(3,5-difluorophenyl)dihydro-1′H,3′H,5′H-spiro[piperidine-4,2′-pyrazolo[1,2-a]pyrazol]-l′-one]
16 | 48 | Cc1cc(-c2cncs2)nc(N2CCC3(CC2)CN2CC[C@@H](c4cc(F)cc(F)c4)N2C3=O)c1 [Example 2.23, (S)-7′-(3,5-difluorophenyl)-1-(4-methyl-6-(thiazol-5-yl)pyridin-2-yl)dihydro-1′H,3′H,5′H-spiro[piperidine-4,2′-pyrazolo[1,2-a]pyrazol]-1′-one]
17 | 17 | CSc1cc(N2CCC3(CC2)CN2CC[C@@H](c4cc(F)cc(F)c4)N2C3=O)ncn1 [Example 1.14, (S)-7′-(3,5-difluorophenyl)-1-(6-(methylthio)pyrimidin-4-yl)dihydro-1′H,3′H,5′H-spiro[piperidine-4,2′-pyrazolo[1,2-a]pyrazol]-1′-one]
18 | 50 | O=C1N2[C@H](c3cc(F)cc(F)c3)CCN2CC12CCN(c1cc(-n3ccnc3)ccn1)CC2 [Example 2.25, (S)-1-(4-(1H-imidazol-1-yl)pyridin-2-y1)-7′-(3,5-difluorophenyl)dihydro-1′H,3′H,5′H-spiro[piperidine-4,2′-pyrazolo[1,2-a]pyrazol]-1′-one]
19 | 24 | Cc1ccc2c(N3CCC4(CC3)CN3CC[C@@H](c5cc(F)cc(F)c5)N3C4=O)ccnc2c1 [Example 2.8, (S)-7′-(3,5-difluorophenyl)-1-(7-methylquinolin-4-yl)dihydro-l′H,3′H,5′H-spiro[piperidine-4,2′-pyrazolo[1,2-a]pyrazol]-1′-one]
20 | 85 | O=C1N2[C@H](c3cc(F)cc(F)c3)CCN2CC12CCN(c1cc(C(F)(F)F)ncn1)CC2 [Example 1.94, (S)-7′-(3,5-difluorophenyl)-1-(6-(trifluoromethyl)pyrimidin-4-yl)dihydro-1′H,3′H,5′H-spiro[piperidine-4,2′-pyrazolo[1,2-a]pyrazol]-1′-one]
21 | 308 | O=C1N2[C@H](c3cc(F)cc(F)c3)CCN2CC12CCN(c1cnccn1)CC2 [Example 1.41, (S)-7′-(3,5-difluorophenyl)-1-(pyrazin-2-yl)dihydro-1′H,3′H,5′H-spiro[piperidine-4,2′-pyrazolo[1,2-a]pyrazol]-1′-one]
22 | 26 | COc1cc(F)cc(C(=O)N2CCC3(CC2)CN2CC[C@@H](c4cc(F)cc(F)c4)N2C3=O)c1 [Example 4.27, (S)-7′-(3,5-difluorophenyl)-1-(3-fluoro-5-methoxybenzoyl) dihydro-l′H,3′H,5′H-spiro[piperidine-4,2′-pyrazolo[1,2-a]pyrazol]-l′-one]
23 | 111 | CN(C)C(=O)c1ccnc(N2CCC3(CC2)CN2CC[C@@H](c4cc(F)cc(F)c4)N2C3=O)n1 [Example 1.88, (S)-2-(7′-(3,5-difluorophenyl)-1′-oxodihydro-1′H,3′H,5′H-spiro[piperidine-4,2′-pyrazolo[1,2-a]pyrazol]-1-yl)-N,N-dimethylpyrimidine-4-carboxamide]
24 | 288 | O=C1N2[C@H](c3cc(F)cc(F)c3)CCN2CC12CCN(c1ncc3c(n1)CCCC3)CC2 [Example 1.32, (S)-7′-(3,5-difluorophenyl)-1-(5,6,7,8-tetrahydroquinazolin-2-yl)dihydro-1′H,3′H,5′H-spiro[piperidine-4,2′-pyrazolo[1,2-a]pyrazol]-1′-one]
25 | 35 | O=C(c1cccc(F)c1)N1CCC2(CC1)CN1CC[C@@H](c3cc(F)cc(F)c3)N1C2=O [Example 4.25, (S)-7′-(3,5-difluorophenyl)-1-(3-fluorobenzoyl) dihydro-1′H,3′H,5′H-spiro[piperidine-4,2′-pyrazolo[1,2-a]pyrazol]-l′-one]

Row | Compound | EC50 [nM]
26 | O=C1N2[C@H](c3cc(F)cc(F)c3)CCN2CC12CCN(c1ccc(Br)c3ccnn13)CC2 [Example 2.1] | 7.5
